Laboratory results as given in patent US20100303786A1, “Stabilisation of Liquid-Formulated Factor VII(A) Polypeptides by Aldehyde-Containing Compounds” (Novo Nordisk Health Care AG, priority 2007, published 2010).
Entries after “also recorded” stand apart in the source; their conditions may differ.

Legend:
40K-PEG-rFVIIa [1] = biological target: T1, 40K-PEG-rFVIIa (Homo sapiens, UniProt P08709); test: Stability of liquid 40K-PEG-rFVIIa formulations: heavy chain fragmentation (Assay 5); format: physicochemical; details: 2 months at 5° C.; 28 mM benzaldehyde or 180 mM 5-formyl-4-methylimidazole
T1 construct: has been cleaved at the peptide bond preceding position 153
T1 sequence (P08709 213-466 limits assumed): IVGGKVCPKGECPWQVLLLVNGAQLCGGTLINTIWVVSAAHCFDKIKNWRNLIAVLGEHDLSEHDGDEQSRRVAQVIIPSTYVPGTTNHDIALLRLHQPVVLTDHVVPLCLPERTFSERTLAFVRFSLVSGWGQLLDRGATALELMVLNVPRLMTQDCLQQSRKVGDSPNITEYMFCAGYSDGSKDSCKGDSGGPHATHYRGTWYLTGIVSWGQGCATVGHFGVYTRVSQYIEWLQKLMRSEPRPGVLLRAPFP
T1 sequence (P08709 61-212 limits assumed): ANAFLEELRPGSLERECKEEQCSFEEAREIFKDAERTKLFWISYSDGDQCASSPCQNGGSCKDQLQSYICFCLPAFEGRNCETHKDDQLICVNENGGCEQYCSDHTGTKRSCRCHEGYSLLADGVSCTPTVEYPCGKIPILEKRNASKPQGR
Description: For the purpose of determining the content of heavy chain fragmentation products of 40K-PEG-rFVIIa, a reverse phase HPLC was run on a ACE 3 μm C4, 300 Å, 4.6×100 mm column (Advanced Chromatography Technologies, part. no. ACE-213-1046). Column temperature: 60° C. A-buffer: 0.05% v/v trifluoracetic acid. B-buffer: 0.06% v/v trifluoracetic acid, 80% v/v acetonitrile. Denaturation buffer: 6M Guanidine hydrochloride, 50 mM Tris, 5 mM calcium chloride, pH 7,5. Samples are prepared from 50 μl analysis sample+50 μl denaturation buffer+5 μl DTT+1 μl acetic acid and incubated at 60° C. for 15 min.
The column was eluted with a linear gradient from 35 to 80% B in 30 minutes. Flow rate: 0.7 mL/min. Detection: 214 nm. Load: 25 μg FVIIa. The initial content of heavy chain degradation products is subtracted from the measured content of heavy chain degradation product, i.e. the initial content of heavy chain degradation products is set to 0%. The content of heavy chain degradation products at the time x is then calculated as: […]
wherein HCDP(x) is the measured content of heavy chain degradation products at the time x, HCDP(0) is the measured initial content of heavy chain degradation products, and FVII(x) is the content of the intact Factor VII polypeptide at the time x.
A stability experiment with liquid formulations containing 40K-PEG-rFVIIa was performed. […]

40K-PEG-rFVIIa [2] = biological target: T1, 40K-PEG-rFVIIa; test: Stability of liquid 40K-PEG-rFVIIa formulations: clot activity (one-stage coagulation assay, Assay 3); format: biochemical; details: 2 months at 5° C.; 28 mM benzaldehyde or 180 mM 5-formyl-4-methylimidazole
Description: The clot assay is used to assess the ability of Factor VIIa polypeptides to make blood clot. For this purpose, the sample to be tested is diluted in 50 mM PIPES-buffer (pH 7.5), 0.1% BSA and 40 μl is incubated with 40 μl of Factor VII deficient plasma and 80 μl of human recombinant tissue factor containing 10 mM Ca2+ and synthetic phospholipids. Coagulation times (clotting times) are measured and compared to a standard curve using a reference standard in a parallel line assay.
A stability experiment with liquid formulations containing 40K-PEG-rFVIIa was performed. The formulations had the following compositions: […]
The PEG moiety is excluded in the specification of 40K-PEG-rFVIIa concentration. pH was 6.5 in all samples. At 0, ½, 1 and 2 months, 70 μl aliquots were taken from the stability sample, diluted to 1 mg/ml 40K-PEG-rFVIIa and assayed for clot activity (Δactivity), FVIIa polypeptide fragmentation (Δfragment), dimer/2-PEG, and high molecular weight protein.

FVIIa = biological target: T2, FVIIa (Homo sapiens, UniProt P08709); test: Thermo-fluorescence (thermal shift) measurement of FVIIa denaturation temperature in the presence of aldehydes; format: physicochemical; details: 25 mM imidazole, pH 6.5, 20 mM CaCl2, 60 mg/ml sucrose; various aldehyde concentrations; FIG. 2
T2 construct: has been cleaved at the peptide bond preceding position 153
T2 sequence (P08709 213-466 limits assumed): T1 sequence (P08709 213-466 limits assumed)
T2 sequence (P08709 61-212 limits assumed): T1 sequence (P08709 61-212 limits assumed)
Description: The effect of aldehydes on Factor VIIa amidolytic activity is shown in an in vitro hydrolysis assay (20 mM imidazole, pH 6.5, 20 mM CaCl2), the results of which are illustrated in FIG. 1. A clear inhibition of amidolytic activity is observed. However, the apparent inhibition could be due to FVIIa denaturation. In order to address this issue, the denaturation temperature of FVIIa was measured in the presence of aldehydes. The measurement was performed by thermo-fluorescence, essentially as the thermal shift assay described by Lo et al., Analytical Biochemistry 332, 153-159 (2004). The denaturation temperature was determined as the point of maximum slope of the fluorescence intensity curve. The denaturation temperature is shown in FIG. 2 at various concentrations of aldehydes (25 mM imidazole, pH 6.5, 20 mM CaCl2, 60 mg/ml sucrose). […] Therefore, the inhibitory activity of these three compounds may be caused by denaturation.

rFVIIa = biological target: T3, rFVIIa (Homo sapiens, UniProt P08709); test: Stability experiment: heavy chain fragmentation of rFVIIa after 4 weeks in benzaldehyde solutions; format: physicochemical; details: 4 weeks at 5° C.; 12.5 mg/ml rFVIIa, pH 6.5; 0, 10, 20, 40 and 80 mM benzaldehyde; FIG. 5
T3 construct: has been cleaved at the peptide bond preceding position 153
T3 sequence (P08709 213-466 limits assumed): T1 sequence (P08709 213-466 limits assumed)
T3 sequence (P08709 61-212 limits assumed): T1 sequence (P08709 61-212 limits assumed)
Description: In the below working examples the content of heavy chain fragmentation products of Factor VIIa is determined by RP-HPLC as described in the following:
Reverse phase HPLC was run on a proprietary 4.5×250 mm butyl-bonded silica column with a particle size of 5 μm and pore size 300 Å. Column temperature: 70° C. A-buffer: 0.1% v/v trifluoracetic acid. B-buffer: 0.09% v/v trifluoracetic acid, 80% v/v acetonitrile. The column was eluted with a linear gradient from X to (X+13) % B in 30 minutes. X was adjusted so that FVIIa elutes with a retention time of approximately 26 minutes. Flow rate: 1.0 mL/min. Detection: 214 nm. Load: 25 μg FVIIa.
A stability experiment with liquid formulations containing FVIIa was performed. Conditions in all samples were 10 mM His, pH 6.5, 20 mM CaCl2, 6% sucrose, 0.5 mg/ml methionine, 12.5 mg/ml rFVIIa. 50 μl solutions with 0, 10, 20, 40 and 80 mM benzaldehyde in 500 μl cryotubes were prepared, incubated at 5° C. for 4 weeks and then frozen to −80° C. In addition, a reference sample without benzaldehyde was prepared and immediately frozen to −80° C. For analysis, all samples were thawed, diluted to 1 ml volume in 10 mM histidine, pH 5.5, and analysed for heavy chain fragmentation.

Row | Structure (SMILES) | Fragmentation compared to the reference formulation (40K-PEG-rFVIIa [1]) | Loss of activity / FVIIa polypeptide stability compared to the reference formulation (40K-PEG-rFVIIa [2]) | Effect on Factor VIIa denaturation temperature (melting point) (FVIIa) | Fragmentation as a percentage of the total Factor VIIa content (% fragmented) (rFVIIa)
1 | Cc1nc[nH]c1C=O [5-formyl-4-methylimidazol, 5-formyl-4-methylimidazole] | very large reduction in fragmentation | very large improvement in FVIIa polypeptide stability |  | 
2 | O=Cc1ccccc1 [benzaldehyde] | small reduction in fragmentation | small reduction in fragmentation and loss of activity | drops significantly at high aldehyde concentration; also recorded: affect the denaturation temperature at high concentrations | decreases as the concentration of benzaldehyde is increased; also recorded: much lower in the presence of benzaldehyde, particularly in concentrations above 10 mM
